Test results from patent US20190322676A1, “CERAMIDE GALACTOSYLTRANSFERASE INHIBITORS FOR THE TREATMENT OF DISEASE” (BioMarin Pharmaceutical Inc., priority 2016, published 2019).
Structures can show the parent of a compound that is named as a salt.

Each compound was assayed against T1, human CGT (ceramide galactosyltransferase), CHO/CGT lysate (Homo sapiens, UniProt Q16880) (assay: CGT enzyme assay, RapidFire/MS/MS readout with 0.01% Tween added (Table 1 ranges with two asterisks **)). Settings: CGT enzymatic assay; range with two asterisks (**): RapidFire/MS/MS method with 0.01% Tween added.
T1 construct: Full-length human CGT cDNA was cloned into the BamH1/Xho1 site of pcDNA3.1 (+); expressed in transfected cells; host or cells: Chinese hamster ovary (CHO) cells; lysate prepared with M-PER
T1 sequence (Q16880 21-541): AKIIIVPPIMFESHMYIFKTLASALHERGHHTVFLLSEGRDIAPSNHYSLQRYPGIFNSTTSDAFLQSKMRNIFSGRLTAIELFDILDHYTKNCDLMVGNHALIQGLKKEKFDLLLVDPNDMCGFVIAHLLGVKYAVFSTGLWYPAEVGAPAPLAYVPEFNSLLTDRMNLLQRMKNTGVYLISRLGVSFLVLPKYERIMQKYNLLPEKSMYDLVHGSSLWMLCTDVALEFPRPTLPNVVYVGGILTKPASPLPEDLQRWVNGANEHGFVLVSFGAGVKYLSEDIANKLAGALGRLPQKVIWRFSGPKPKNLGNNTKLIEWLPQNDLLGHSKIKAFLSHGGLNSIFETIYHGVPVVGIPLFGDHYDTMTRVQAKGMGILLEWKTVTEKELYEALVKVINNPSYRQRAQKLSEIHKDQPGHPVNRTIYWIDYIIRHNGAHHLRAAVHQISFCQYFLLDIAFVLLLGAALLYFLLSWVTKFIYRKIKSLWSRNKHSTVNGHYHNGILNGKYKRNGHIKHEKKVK
Type: biochemical
How it was run: (§1)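 IC50s come from variable-slope dose-response fits of internal-standard-normalized C6-NBD-dihydro-galactosylceramide, measured by RapidFire/MS/MS (ESI negative). Reactions: 1 h, 37 °C, human CGT-expressing CHO lysate (4 μg), 0.001–50 μM compound, 10 μM NBD-dihydro-ceramide, 17.5 μM UDP-galactose, 0.5% DMSO, pH 7.2; 0.01% Tween 80 added for ** values.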

Q: `NC1CC2CCC(C1)N2C(=O)[C@H](NC(=O)[C@H](O)c1ccc(OCC2CCCCC2)cc1)C(F)(F)c1ccc(-c2ccc(Cl)cc2)cc1` (stereo partly drawn) [Compound 152-4, (2R)—N-((2S)-3-(3-amino-8-azabicyclo[3.2.1]octan-8-yl)-1-(4′-chloro-[1,1′-biphenyl]-4-yl)-1,1-difluoro-3-oxopropan-2-yl)-2-(4-(cyclohexylmethoxy)phenyl)-2-hydroxyacetamide trifluoroacetate] was tested. Which IC50 did it give?
A: 30 to 100 µM

Q: `NC1CCN(C(=O)[C@@H](NS(=O)(=O)c2ccc(OCC3CCCCC3)cc2)C(F)(F)c2cccc(-c3ccc(Cl)cc3)c2)CC1` [Compound 181-1, (R)—N-(3-(4-aminopiperidin-1-yl)-1-(4′-chloro-[1,1′-biphenyl]-3-yl)-1,1-difluoro-3-oxopropan-2-yl)-4-(cyclohexylmethoxy)benzenesulfonamide trifluoroacetate] was tested. Which IC50 did it give?
A: 1 to 10 µM

Q: How did the IC50 turn out when `N[C@@H]1CCN(C(=O)[C@H](NS(=O)(=O)c2ccc3cc(OC4CCCC4)ccc3c2)C(F)(F)c2ccc(-c3ccc(Cl)cc3)cc2)CC1(F)F` [Compound 161-4, N—((S)-3-((R)-4-amino-3,3-difluoropiperidin-1-yl)-1-(4′-chloro-[1,1′-biphenyl]-4-yl)-1,1-difluoro-3-oxopropan-2-yl)-6-(cyclopentyloxy)naphthalene-2-sulfonamide trifluoroacetate] was run?
A: 1 to 10 µM

Q: `N[C@@H]1CCN(C(=O)[C@@H](NS(=O)(=O)c2ccc3cc(OC4CCCC4)ccc3c2)C(F)(F)c2ccc(-c3ccc(Cl)cc3)cc2)CC1(F)F` [Compound 161-1, N—((R)-3-((R)-4-amino-3,3-difluoropiperidin-1-yl)-1-(4′-chloro-[1,1′-biphenyl]-4-yl)-1,1-difluoro-3-oxopropan-2-yl)-6-(cyclopentyloxy)naphthalene-2-sulfonamide trifluoroacetate] was tested. Which IC50 did it give?
A: 1 to 10 µM

Q: `C=C(c1ccc(C(F)(F)[C@H](NS(=O)(=O)c2ccc3cc(OC4CCCC4)ccc3c2)C(=O)N2CCC(N)CC2)cc1)C(F)(F)F` [Compound 166-1, (R)—N-(3-(4-aminopiperidin-1-yl)-1,1-difluoro-3-oxo-1-(4-(3,3,3-trifluoroprop-1-en-2-yl)phenyl)propan-2-yl)-6-(cyclopentyloxy)naphthalene-2-sulfonamide] was tested. Which IC50 did it give?
A: 1 to 10 µM

Q: For `N[C@H]1CCN(C(=O)[C@H](NS(=O)(=O)c2ccc3cc(OC4CCCC4)ccc3c2)C(F)(F)c2ccc(-c3ccc(Cl)cc3)cc2)C[C@@H]1F` [Compound 178-2, N—((S)-3-((3 S,4S)-4-amino-3-fluoropiperidin-1-yl)-1-(4′-chloro-[1,1′-biphenyl]-4-yl)-1,1-difluoro-3-oxopropan-2-yl)-6-(cyclopentyloxy) naphthalene-2-sulfonamide], which IC50 is on record?
A: 1 to 10 µM

Q: `NC1CCN(C(=O)[C@H](NS(=O)(=O)c2ccc3cc(OC4CCCC4)ccc3c2)C(F)(F)c2ccc(-c3ccc(Cl)cc3)cn2)CC1` [Compound 162-2, (S)—N-(3-(4-aminopiperidin-1-yl)-1-(5-(4-chlorophenyl)pyridin-2-yl)-1,1-difluoro-3-oxopropan-2-yl)-6-(cyclopentyloxy)naphthalene-2-sulfonamide] was tested. Which IC50 did it give?
A: 10 to 30 µM

Q: How did the IC50 turn out when `O=C([C@H](NS(=O)(=O)c1ccc(OCC2CCCCC2)cc1)C(F)(F)c1ccc(-c2ccc(Cl)cc2)cc1)N1CC[C@H]2CNC[C@H]21` [Compound 195-4, N-((S)-1-(4′-chloro-[1,1′-biphenyl]-4-yl)-1,1-difluoro-3-((3aS,6aS)-hexahydropyrrolo[3,4-b]pyrrol-1(2H)-yl)-3-oxopropan-2-yl)-4-(cyclohexylmethoxy)benzenesulfonamide] was run?
A: 30 to 100 µM

Q: How did the IC50 turn out when `N[C@H]1CC2CCC1N2C(=O)[C@H](NS(=O)(=O)c1ccc2cc(OC3CCCC3)ccc2c1)C(F)(F)c1ccc(-c2ccc(Cl)cc2)cc1` (stereo partly drawn) [Compound 180-2, N-((2S)-3-((2S)-2-amino-7-azabicyclo[2.2.1]heptan-7-yl)-1-(4′-chloro-[1,1′-biphenyl]-4-yl)-1,1-difluoro-3-oxopropan-2-yl)-6-(cyclopentyloxy)naphthalene-2-sulfonamide] was run?
A: 10 to 30 µM

Q: Which IC50 does the source give for `NC1CC2CCC(C1)N2C(=O)[C@H](NS(=O)(=O)c1ccc2cc(OC3CC3)ccc2c1)C(F)(F)c1ccc(Br)cc1` (stereo partly drawn) [Compound 177-2, N-((2S)-3-(3-amino-8-azabicyclo[3.2.1]octan-8-yl)-1-(4-bromophenyl)-1,1-difluoro-3-oxopropan-2-yl)-6-cyclopropoxynaphthalene-2-sulfonamide trifluoroacetate] here?
A: 10 to 30 µM

Q: With `O=C([C@H](NS(=O)(=O)c1ccc2cc(OC3CCCC3)ccc2c1)C(F)(F)c1ccc(-c2ccc(Cl)cc2)cc1)N1CCNC2(CC2)C1` [Compound 188-2, (S)-N-(1-(4′-chloro-[1,1′-biphenyl]-4-yl)-1,1-difluoro-3-oxo-3-(4,7-diazaspiro[2.5]octan-7-yl)propan-2-yl)-6-(cyclopentyloxy)naphthalene-2-sulfonamide] as the compound, how does the IC50 read?
A: 30 to 100 µM

Q: Which IC50 does the source give for `NC1CCN(C(=O)[C@@H](NS(=O)(=O)c2ccc3cc(OC4CCCC4)ccc3c2)C(F)(F)c2ccc(C3(C(F)(F)F)CC3)cc2)CC1` [Compound 182-1, (R)—N-(3-(4-aminopiperidin-1-yl)-1,1-difluoro-3-oxo-1-(4-(1-(trifluoromethyl)cyclopropyl)phenyl)propan-2-yl)-6-(cyclopentyloxy)naphthalene-2-sulfonamide trifluoroacetate] here?
A: < 1 µM

Q: Which IC50 does the source give for `CCOc1cc(-c2ccc(C(F)(F)[C@@H](NS(=O)(=O)c3ccc4cc(OC5CCCC5)ccc4c3)C(=O)N3CCC(N)CC3)cc2)ccc1Cl` [Compound 154-2, (S)—N-(3-(4-aminopiperidin-1-yl)-1-(4′-chloro-3′-ethoxy-[1,1′-biphenyl]-4-yl)-1,1-difluoro-3-oxopropan-2-yl)-6-(cyclopentyloxy)naphthalene-2-sulfonamide trifluoroacetate] here?
A: 1 to 10 µM

Q: How did the IC50 turn out when `O=C([C@@H](NS(=O)(=O)c1ccc2cc(OC3CCCC3)ccc2c1)C(F)(F)c1ccc(-c2ccc(Cl)cc2)cc1)N1Cc2cn[nH]c2C1` [Compound 176-1, (R)—N-(1-(4′-chloro-[1,1′-biphenyl]-4-yl)-3-(4,6-dihydropyrrolo[3,4-c]pyrazol-5(1H)-yl)-1,1-difluoro-3-oxopropan-2-yl)-6-(cyclopentyloxy)naphthalene-2-sulfonamide] was run?
A: < 1 µM

Q: How did the IC50 turn out when `NC1CCN(C(=O)[C@@H](NS(=O)(=O)c2ccc3cc(OC4CCCC4)ccc3c2)C(F)(F)c2ccc(-c3ccc(Cl)cc3)cn2)CC1` [Compound 162-1, (R)—N-(3-(4-aminopiperidin-1-yl)-1-(5-(4-chlorophenyl)pyridin-2-yl)-1,1-difluoro-3-oxopropan-2-yl)-6-(cyclopentyloxy)naphthalene-2-sulfonamide] was run?
A: 1 to 10 µM

Q: For `NC1CCN(C(=O)[C@@H](NC(=O)[C@@H](O)c2ccc3cc(OC4CCCC4)ccc3c2)C(F)(F)c2ccc(-c3ccc(Cl)cc3)cc2)CC1` [Compound 159-3, (S)—N—((R)-3-(4-aminopiperidin-1-yl)-1-(4′-chloro-[1,1′-biphenyl]-4-yl)-1,1-difluoro-3-oxopropan-2-yl)-2-(6-(cyclopentyloxy)naphthalen-2-yl)-2-hydroxyacetamide trifluoroacetate], which IC50 is on record?
A: 1 to 10 µM

Same assay, conditions: CGT enzyme assay, RapidFire/MS/MS method with 0.01% Tween added (range with two asterisks **)

Q: `NC1CC2CCC(C1)N2C(=O)[C@@H](NC(=O)[C@@H](O)c1ccc2cc(OC3CCCC3)ccc2c1)C(F)(F)c1ccc(-c2ccc(Cl)cc2)cc1` (stereo partly drawn) [Compound 136-3, (2S)—N-((2R)-3-(3-amino-8-azabicyclo[3.2.1]octan-8-yl)-1-(4′-chloro-[1,1′-biphenyl]-4-yl)-1,1-difluoro-3-oxopropan-2-yl)-2-(6-(cyclopentyloxy)naphthalen-2-yl)-2-hydroxyacetamide trifluoroacetate] was tested. Which IC50 did it give?
A: 1 to 10 µM

Q: For `NC1CCN(C(=O)[C@@H](NS(=O)(=O)c2ccc3cc(OC4CCCC4)ccc3c2)C(F)(F)c2ccc(-c3ccc(Cl)cc3)cc2)CC1` [Compound 91-1, (R)—N-(3-(4-aminopiperidin-1-yl)-1-(4′-chloro-[1,1′-biphenyl]-4-yl)-1,1-difluoro-3-oxopropan-2-yl)-6-(cyclopentyloxy)naphthalene-2-sulfonamide trifluoroacetate], which IC50 is on record?
A: < 1 µM

Q: For `NC1CC2CCC(C1)N2C(=O)[C@@H](NS(=O)(=O)c1ccc2cc(OC3CCCC3)ccc2c1)C(F)(F)c1ccc(-c2ccc(Cl)cc2)cc1` (stereo partly drawn) [Compound 48-1, N-((2R)-3-(3-amino-8-azabicyclo[3.2.1]octan-8-yl)-1-(4′-chloro-[1,1′-biphenyl]-4-yl)-1,1-difluoro-3-oxopropan-2-yl)-6-(cyclopentyloxy)naphthalene-2-sulfonamide trifluoroacetate], which IC50 is on record?
A: < 1 µM

Each compound was assayed against T1, human CGT (ceramide galactosyltransferase), CHO/CGT lysate (assay: CGT enzyme assay, RapidFire/MS/MS readout (Table 1 ranges with one asterisk *)). Settings: RapidFire method (range with one asterisk *).
Type: biochemical
How it was run: as §1

Q: Which IC50 does the source give for `NC1CC2CCC(C1)N2C(=O)[C@@H](NC(=O)[C@@H](O)c1ccc2cc(OC3CCCC3)ccc2c1)C(F)(F)c1ccc(-c2ccc(Cl)cc2)cc1` (stereo partly drawn) [Compound 136-3, (2S)—N-((2R)-3-(3-amino-8-azabicyclo[3.2.1]octan-8-yl)-1-(4′-chloro-[1,1′-biphenyl]-4-yl)-1,1-difluoro-3-oxopropan-2-yl)-2-(6-(cyclopentyloxy)naphthalen-2-yl)-2-hydroxyacetamide trifluoroacetate] here?
A: 1 to 10 µM

Q: For `NC1CCN(C(=O)[C@@H](NS(=O)(=O)c2ccc3cc(OC4CCCC4)ccc3c2)C(F)(F)c2ccc(-c3ccc(Cl)cc3)cc2)CC1` [Compound 91-1, (R)—N-(3-(4-aminopiperidin-1-yl)-1-(4′-chloro-[1,1′-biphenyl]-4-yl)-1,1-difluoro-3-oxopropan-2-yl)-6-(cyclopentyloxy)naphthalene-2-sulfonamide trifluoroacetate], which IC50 is on record?
A: < 1 µM

Q: How did the IC50 turn out when `NC1CC2CCC(C1)N2C(=O)[C@@H](NS(=O)(=O)c1ccc2cc(OC3CCCC3)ccc2c1)C(F)(F)c1ccc(-c2ccc(Cl)cc2)cc1` (stereo partly drawn) [Compound 48-1, N-((2R)-3-(3-amino-8-azabicyclo[3.2.1]octan-8-yl)-1-(4′-chloro-[1,1′-biphenyl]-4-yl)-1,1-difluoro-3-oxopropan-2-yl)-6-(cyclopentyloxy)naphthalene-2-sulfonamide trifluoroacetate] was run?
A: < 1 µM
